# Test results published in patent US9663508B2, “Biaryl acyl-sulfonamide compounds as sodium channel inhibitors” (AMGEN INC., priority 2013, dated 2017).
# Target: human Nav1.7 (Homo sapiens (Human), UniProt Q15858)
# Assay: Nav 1.7 in vitro PatchXpress (PX) assay
# Assay type: cell-based
# Details: not given
# Sequence of human Nav1.7 (Q15858 whole entry): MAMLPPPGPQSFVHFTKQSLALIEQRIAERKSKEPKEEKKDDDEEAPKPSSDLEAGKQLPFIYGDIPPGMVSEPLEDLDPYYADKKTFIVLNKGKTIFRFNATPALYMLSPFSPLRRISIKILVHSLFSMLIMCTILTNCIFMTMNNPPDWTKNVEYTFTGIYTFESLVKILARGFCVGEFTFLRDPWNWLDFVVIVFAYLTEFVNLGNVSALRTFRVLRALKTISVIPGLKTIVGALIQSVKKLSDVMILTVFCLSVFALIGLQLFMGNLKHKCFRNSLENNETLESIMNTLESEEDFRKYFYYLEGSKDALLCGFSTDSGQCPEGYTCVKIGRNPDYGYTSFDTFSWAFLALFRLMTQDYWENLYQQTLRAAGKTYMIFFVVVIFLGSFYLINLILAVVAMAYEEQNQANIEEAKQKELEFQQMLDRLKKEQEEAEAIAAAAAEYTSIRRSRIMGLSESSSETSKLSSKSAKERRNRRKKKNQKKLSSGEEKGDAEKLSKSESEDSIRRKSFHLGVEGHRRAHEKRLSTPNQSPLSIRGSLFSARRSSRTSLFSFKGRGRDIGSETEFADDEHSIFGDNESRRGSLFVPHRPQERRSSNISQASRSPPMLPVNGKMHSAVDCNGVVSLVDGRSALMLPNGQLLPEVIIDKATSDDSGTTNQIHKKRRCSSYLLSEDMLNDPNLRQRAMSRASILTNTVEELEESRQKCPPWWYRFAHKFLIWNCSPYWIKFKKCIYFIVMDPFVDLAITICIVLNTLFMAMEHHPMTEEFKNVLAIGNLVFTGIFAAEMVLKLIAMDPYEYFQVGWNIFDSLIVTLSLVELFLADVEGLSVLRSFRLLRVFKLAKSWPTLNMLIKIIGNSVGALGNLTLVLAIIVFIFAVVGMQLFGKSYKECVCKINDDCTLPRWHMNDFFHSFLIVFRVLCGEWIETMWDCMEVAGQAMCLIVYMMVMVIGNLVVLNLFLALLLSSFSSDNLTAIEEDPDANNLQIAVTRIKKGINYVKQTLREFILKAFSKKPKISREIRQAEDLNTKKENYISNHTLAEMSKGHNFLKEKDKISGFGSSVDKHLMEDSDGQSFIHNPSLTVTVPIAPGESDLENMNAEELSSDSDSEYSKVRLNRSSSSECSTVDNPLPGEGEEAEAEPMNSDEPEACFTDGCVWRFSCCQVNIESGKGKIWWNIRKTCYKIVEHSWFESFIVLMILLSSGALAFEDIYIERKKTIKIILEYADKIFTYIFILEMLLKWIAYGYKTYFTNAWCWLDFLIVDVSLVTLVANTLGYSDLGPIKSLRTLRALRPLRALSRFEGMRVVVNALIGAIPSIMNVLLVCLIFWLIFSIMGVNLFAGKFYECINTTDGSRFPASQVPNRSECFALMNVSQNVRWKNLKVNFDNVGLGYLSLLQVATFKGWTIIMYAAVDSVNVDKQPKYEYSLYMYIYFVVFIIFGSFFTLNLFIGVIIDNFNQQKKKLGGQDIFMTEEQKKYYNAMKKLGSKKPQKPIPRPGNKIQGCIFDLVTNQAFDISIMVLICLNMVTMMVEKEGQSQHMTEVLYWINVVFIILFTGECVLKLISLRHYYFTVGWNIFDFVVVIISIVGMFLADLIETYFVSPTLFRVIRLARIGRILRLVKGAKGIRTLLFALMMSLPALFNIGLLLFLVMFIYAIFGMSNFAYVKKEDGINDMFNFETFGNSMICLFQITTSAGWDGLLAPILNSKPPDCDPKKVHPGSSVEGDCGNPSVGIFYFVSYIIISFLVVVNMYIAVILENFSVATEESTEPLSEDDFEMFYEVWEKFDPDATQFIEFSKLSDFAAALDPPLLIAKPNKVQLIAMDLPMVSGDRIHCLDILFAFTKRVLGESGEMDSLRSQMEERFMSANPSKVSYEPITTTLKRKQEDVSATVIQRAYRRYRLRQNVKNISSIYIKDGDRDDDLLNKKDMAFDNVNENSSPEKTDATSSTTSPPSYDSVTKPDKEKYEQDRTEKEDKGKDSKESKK
row,IC50 [nM],Molecule
1,88.2,"COc1cc(C(=O)NS(C)(=O)=O)ccc1-c1cnc(Oc2ccc(F)c(F)c2F)c(Cl)c1 [Example 357, 4-(5-chloro-6-(2,3,4-trifluorophenoxy)-3-pyridinyl)-3-methoxy-N-(methylsulfonyl)benzamide]"
2,79.2,"Cc1ccc(Oc2ncc(-c3ccc(C(=O)NS(C)(=O)=O)cc3OC(F)F)cc2Cl)cc1Cl [Example 449, 4-(5-chloro-6-(3-chloro-4-methylphenoxy)-3-pyridinyl)-3-(difluoromethoxy)-N-(methylsulfonyl)benzamide]"
3,66.1,"COc1cc(C(=O)NS(C)(=O)=O)ccc1-c1cnc(Oc2ccc3c(c2)CCC3)c(Cl)c1 [Example 580, 4-(5-chloro-6-(2,3-dihydro-1H-inden-5-yloxy)-3-pyridinyl)-3-methoxy-N-(methylsulfonyl)benzamide]"
4,64,"CS(=O)(=O)NC(=O)c1ccc(-c2cnc(Oc3cccc(C(F)(F)F)c3)c(Cl)c2)c(OC(F)F)c1 [Example 456, 4-(5-chloro-6-(3-(trifluoromethyl)phenoxy)-3-pyridinyl)-3-(difluoromethoxy)-N-(methylsulfonyl)benzamide]"
5,109,"Cc1cc(C(=O)NS(C)(=O)=O)c(F)cc1-c1cnc(Oc2cccc(F)c2F)c(Cl)c1 [Example 604, 4-(5-chloro-6-(2,3-difluorophenoxy)-3-pyridinyl)-2-fluoro-5-methyl-N-(methylsulfonyl)benzamide]"
6,92.2,"COc1ncc(Oc2ncc(-c3ccc(C(=O)NS(C)(=O)=O)cc3OC(F)F)cc2Cl)cc1Cl [Example 436, 4-(5-chloro-6-((5-chloro-6-methoxy-3-pyridinyl)oxy)-3-pyridinyl)-3-(difluoromethoxy)-N-(methylsulfonyl)benzamide]"
7,38.6,"Cc1ccc(Cl)c(Oc2ncc(-c3ccc(C(=O)NS(C)(=O)=O)cc3OC3COC3)cc2Cl)c1 [Example 423, 4-(5-chloro-6-(2-chloro-5-methylphenoxy)-3-pyridinyl)-N-(methylsulfonyl)-3-(3-oxetanyloxy)benzamide]"
8,60,"Cc1ccc(Oc2ncc(-c3cc(F)c(C(=O)NS(C)(=O)=O)cc3F)cc2Cl)c(F)c1F [Example 569, 4-(5-chloro-6-(2,3-difluoro-4-methylphenoxy)-3-pyridinyl)-2,5-difluoro-N-(methylsulfonyl)benzamide]"
9,72.3,"CCc1cc(Oc2ncc(-c3ccc(C(=O)NS(C)(=O)=O)cc3OC)cc2Cl)ccc1Cl [Example 368, 4-(5-chloro-6-(4-chloro-3-ethylphenoxy)-3-pyridinyl)-3-methoxy-N-(methylsulfonyl)benzamide]"
10,94.2,"COc1cc(C(=O)NS(C)(=O)=O)ccc1-c1cnc(OCCc2ccccc2)c(C#N)c1 [Example 539, 4-(5-cyano-6-(2-phenylethoxy)-3-pyridinyl)-3-methoxy-N-(methylsulfonyl)benzamide]"
11,60.3,"COc1cc(C(=O)NS(C)(=O)=O)ccc1-c1cnc(Oc2ccc(Cl)c(Cl)c2)c(C#N)c1 [Example 692, 4-(5-cyano-6-(3,4-dichlorophenoxy)-3-pyridinyl)-3-methoxy-N-(methylsulfonyl)benzamide]"
12,74.4,"Cc1cc(C(=O)NS(C)(=O)=O)c(F)cc1-c1cnc(Oc2ccc(F)cc2C(F)(F)F)c(Cl)c1 [Example 678, 4-(5-chloro-6-(4-fluoro-2-(trifluoromethyl)phenoxy)-3-pyridinyl)-2-fluoro-5-methyl-N-(methylsulfonyl)benzamide]"
13,66.2,"COc1cc(C(=O)NS(C)(=O)=O)ccc1-c1cnc(Oc2ccc(Cl)c(OC(F)(F)F)c2)c(Cl)c1 [Example 373, 4-(5-chloro-6-(4-chloro-3-(trifluoromethoxy)phenoxy)-3-pyridinyl)-3-methoxy-N-(methylsulfonyl)benzamide]"

row,Molecule,IC50 [nM]
1,"COc1cc(C(=O)NS(C)(=O)=O)ccc1-c1cnc(Oc2ccc(C)c(Cl)c2)c(C#N)c1 [Example 549, 4-(6-(3-chloro-4-methylphenoxy)-5-cyano-3-pyridinyl)-3-methoxy-N-(methylsulfonyl)benzamide]",50.5

# Same assay, conditions: in-vitro Nav 1.7 PX data
row,IC50 [nM],Molecule
1,62.4,"COc1cc(C(=O)NS(C)(=O)=O)c(F)cc1-c1cnc(Oc2cccc(C)c2Cl)c(Cl)c1 [Example 760, 4-(5-chloro-6-(2-chloro-3-methylphenoxy)-3-pyridinyl)-2-fluoro-5-methoxy-N-(methylsulfonyl)benzamide]"
2,12800,"4-(3-Chloro-4′-Methoxy-2′-Methyl-[2,3′-Bipyridin]-5-yl)-2-Fluoro-5-Methyl-N-(Methylsulfonyl)Benzamide [Example 839]"
3,92.2,"COc1cc(C(=O)NS(C)(=O)=O)c(F)cc1-c1cnc(Oc2ccc(F)c(C)c2)c(Cl)c1 [Example 754, 4-(5-chloro-6-(4-fluoro-3-methylphenoxy)-3-pyridinyl)-2-fluoro-5-methoxy-N-(methylsulfonyl)benzamide]"
4,98.8,"Cc1cc(C(=O)NS(=O)(=O)C2CC2)c(F)cc1-c1cnc(OC2CCC2)c(Cl)c1 [Example 797, 4-(5-chloro-6-(cyclobutyloxy)-3-pyridinyl)-N-(cyclopropylsulfonyl)-2-fluoro-5-methylbenzamide]"
5,51,"COc1cc(C(=O)NS(C)(=O)=O)c(F)cc1-c1cnc(Oc2cc(Cl)c(Cl)cc2Cl)c(Cl)c1 [Example 739, 4-(5-chloro-6-(2,4,5-trichlorophenoxy)-3-pyridinyl)-2-fluoro-5-methoxy-N-(methylsulfonyl)benzamide]"
6,145,"COc1cc(C(=O)NS(C)(=O)=O)c(F)cc1-c1cnc(OCC2C(C)(C)C2(C)C)c(Cl)c1 [Example 718, 4-(5-chloro-6-((2,2,3,3-tetramethylcyclopropyl)methoxy)-3-pyridinyl)-2-fluoro-5-methoxy-N-(methylsulfonyl)benzamide]"
7,62.8,"COc1cc(C(=O)NS(C)(=O)=O)c(F)cc1-c1cnc(Oc2ccc(C)c(F)c2F)c(Cl)c1 [Example 746, 4-(5-chloro-6-(2,3-difluoro-4-methylphenoxy)-3-pyridinyl)-2-fluoro-5-methoxy-N-(methylsulfonyl)benzamide]"
8,96.3,"COc1cc(C(=O)NS(C)(=O)=O)c(F)cc1-c1cnc(Oc2c(F)ccc(F)c2F)c(Cl)c1 [Example 766, 4-(5-chloro-6-(2,3,6-trifluorophenoxy)-3-pyridinyl)-2-fluoro-5-methoxy-N-(methylsulfonyl)benzamide]"
9,110,"COc1cc(C(=O)NS(C)(=O)=O)c(F)cc1-c1cnc(N[C@@H]2CCC23CCC3)c(Cl)c1 [Example 722, 4-(5-chloro-6-((1R)-spiro[3.3]hept-1-ylamino)-3-pyridinyl)-2-fluoro-5-methoxy-N-(methylsulfonyl)benzamide, 4-(5-chloro-6-((1S)-spiro[3.3]hept-1-ylamino)-3-pyridinyl)-2-fluoro-5-methoxy-N-(methylsulfonyl)benzamide]"
10,72.5,"COc1cc(C(=O)NS(C)(=O)=O)c(F)cc1-c1cnc(Oc2cccc(Cl)c2F)c(Cl)c1 [Example 745, 4-(5-chloro-6-(3-chloro-2-fluorophenoxy)-3-pyridinyl)-2-fluoro-5-methoxy-N-(methylsulfonyl)benzamide]"
11,106,"COc1cc(C(=O)NS(C)(=O)=O)c(F)cc1-c1cnc(NCCC2CCCC2)c(Cl)c1 [Example 731, 4-(5-chloro-6-((2-cyclopentylethyl)amino)-3-pyridinyl)-2-fluoro-5-methoxy-N-(methylsulfonyl)benzamide]"
12,37,"COc1cc(C(=O)NS(C)(=O)=O)c(F)cc1-c1cnc(Oc2ccc(Cl)cc2Cl)c(Cl)c1 [Example 738, 4-(5-chloro-6-(2,4-dichlorophenoxy)-3-pyridinyl)-2-fluoro-5-methoxy-N-(methylsulfonyl)benzamide]"
13,100,"COc1cc(C(=O)NS(C)(=O)=O)c(F)cc1-c1cnc(Oc2c(Cl)cc(F)cc2Cl)c(Cl)c1 [Example 737, 4-(5-chloro-6-(2,6-dichloro-4-fluorophenoxy)-3-pyridinyl)-2-fluoro-5-methoxy-N-(methylsulfonyl)benzamide]"
14,642,"CC(C)COc1ncc(-c2cc(F)c(C(=O)NS(C)(=O)=O)cc2F)cc1-c1cc(F)cc(F)c1 [Example 838, 4-(5-(3,5-difluorophenyl)-6-(2-methylpropoxy)-3-pyridinyl)-2,5-difluoro-N-(methylsulfonyl)benzamide]"
15,72.1,"CC(C)C1CCCN1c1ncc(-c2ccc(C(=O)NS(C)(=O)=O)cc2OC(F)F)cc1Cl (racemic) [compound 833, 4-(5-Chloro-6-(2-Isopropylpyrrolidin-1-yl)Pyridin-3-yl)-3-(Difluoromethoxy)-N-(Methylsulfonyl)Benzamide]"
16,80.5,"COc1cc(C(=O)NS(C)(=O)=O)c(F)cc1-c1cnc(O[C@@H](C)CC(C)C)c(Cl)c1 [Example 726, 4-(5-chloro-6-(((1S)-1,3-dimethylbutyl)oxy)-3-pyridinyl)-2-fluoro-5-methoxy-N-(methylsulfonyl)benzamide]"
17,27.5,"Cc1cc(Cl)cc(Cl)c1Oc1ncc(-c2ccc(C(=O)NS(C)(=O)=O)cc2Br)cc1Cl [Example 794, 3-bromo-4-(5-chloro-6-(2,4-dichloro-6-methylphenoxy)-3-pyridinyl)-N-(methylsulfonyl)benzamide]"

row,Molecule,IC50 [nM]
1,"COc1cc(C(=O)NS(C)(=O)=O)ccc1-c1cnc(Oc2ccc(C)c(Cl)c2)c(C#N)c1 [Example 829, 4-(6-(3-chloro-4-methylphenoxy)-5-cyano-3-pyridinyl)-3-methoxy-N-(methylsulfonyl)benzamide]",50.5
2,"COc1cc(C(=O)NS(C)(=O)=O)c(F)cc1-c1cnc(O[C@H](C)c2ccccc2)c(Cl)c1 [Example 749, 4-(5-chloro-6-((1R)-1-phenylethoxy)-3-pyridinyl)-2-fluoro-5-methoxy-N-(methylsulfonyl)benzamide]",93.6
3,"COc1cc(C(=O)NS(C)(=O)=O)ccc1-c1cnc(Oc2ccnc(OC)c2Cl)c(Cl)c1 [Example 832, 4-(5-chloro-6-((3-chloro-2-methoxy-4-pyridinyl)oxy)-3-pyridinyl)-3-methoxy-N-(methylsulfonyl)benzamide]",92.3
4,"COc1nccc(C)c1-c1cc(C(=O)NS(C)(=O)=O)ccc1-c1cnc(OCC(C)C)c(Cl)c1 (single isomer, unassigned) [Example 821, 4-(5-Chloro-6-Isobutoxypyridin-3-yl)-3-(2-Methoxy-4-Methylpyridin-3-yl)-N-(Methylsulfonyl)Benzamide]",32000
